Results on 13 molecules are retold here after patent US12065436B2, “Cardiac sarcomere inhibitors” (Cytokinetics, Inc., priority 2018, dated 2024).

Assay [1] has as its system adult cardiac ventricular rat myocytes. Put plainly: Adult ventricular myocyte contractility (fractional shortening). The assay is classed as cell-based. The following applies: 5 min, 10 μM compound, 5 min perfusion, read-out: % FS (% reduction from baseline) ± SEM. Here is the method: Adult male Sprague-Dawley rats were anesthetized and the hearts were quickly excised, rinsed and the ascending aorta was cannulated. Continuous retrograde perfusion was initiated on the hearts at a perfusion pressure of 60 cm H2O. Hearts were first perfused with a nominally Ca^2+-free modified Krebs solution of the following composition: 113 mM NaCl, 4.7 mM KCl, 0.6 mM KH2PO4, 0.6 mM Na2HPO4, 1.2 mM MgSO4, 12 mM NaHCO3, 10 mM KHCO3, 30 mM taurine, 5.5 mM glucose and 10 mM Hepes (all Sigma). This medium is not recirculated and is continually aerated with a 95% O2/5% CO2 mixture. After approximately 3 minutes the heart was perfused with a modified Krebs buffer supplemented with collagenase (Worthington) and 12.5 μM final calcium concentration. The heart was removed from the cannulae after the heart appeared blanched and soft in appearance. The atria and vessels were removed and the ventricles were gently dissected into smaller pieces with forceps. The tissue was homogenized by repeated pipette trituration and the collagenase reaction was stopped by 10% bovine calf serum (BCS), sedimentation and resuspension in perfusion buffer containing 5% BCS and 12.5 uM CaCl2). Myocytes were made calcium tolerant by stepwise addition of a CaCl2) solution to a final concentration of 1.2 mM. Cells were then washed and resuspended in Tyrode's buffer (137 mM NaCl, 3.7 mM KCl, 0.5 mM MgCl, 11 mM glucose, 4 mM Hepes, and 1.2 mM CaCl2), pH 7.4). Cells were kept for 60 min at 37° C. prior to initiating experiments and used within 5 hrs of isolation. […] Additionally, only cells whose basal contractility was between 3 and 8% were used in subsequent experiments with compounds.
Aliquots of myocytes in Tyrode's buffer were placed in perfusion chambers (series 20 RC-27NE; Warner Instruments) complete with heating platforms. Myocytes were allowed to attach, the chambers were heated to 37° C., and the cells were perfused with 37° C. Tyrode's buffer. Myocytes were field stimulated at 1 Hz in with platinum electrodes (20% above threshold). Only cells that had clear striations and were quiescent prior to pacing were used for contractility experiments. To determine basal contractility, myocytes were imaged through a 40× objective. […] Once cell contraction was stable over time, test compounds (0.01-15 μM) were perfused into the chambers on the myocytes for 5 minutes. Contractility of the myocytes and contraction and relaxation velocities were then recorded using edge detection.
Five or more individual myocytes were tested per compound from two or more different myocyte preparations. For each cell, twenty or more contractility transients at basal (defined as 1 min prior to compound infusion) and after compound addition (defined as 5 min after starting compound perfusion), were averaged and compared. These average transients were analyzed using the IonWizard software (IonOptix) to determine changes in diastolic length and fractional shortening. Fractional shortening was calculated as: ((resting length−length at peak contraction) divided by the resting length). The percent change in fractional shortening from baseline was calculated as: ((post-dose fractional shortening/basal fractional shortening)*100). The percent reduction in fractional shortening from baseline was calculated as: (100−percent change in fractional shortening from baseline). Maximum contraction and relaxation velocities (um/sec) was also determined. Results from individual cells are averaged and the SEM calculated.

Assay [2] has as its target bovine cardiac myofibrils (full-length cardiac myosin ATPase in the native sarcomere) (Bos taurus (Bovine), UniProt Q9BE39). Nature of the assay: Skinned bovine cardiac myofibril ATPase assay (PK/LDH-coupled). The assay is classed as biochemical. The following applies: Ca2+ activating to 75% of maximal rate; for CDMF75 IC15: concentration giving 15% inhibition; for IC50: read-out: CDMF75 IC50. The gist of the method: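 Triton-skinned bovine left-ventricle myofibrils (1 mg/mL) in PM 12 buffer (12 mM PIPES, 2 mM MgCl2, pH 6.8) with 50 μM ATP, 0.6 mM EGTA and CaCl2 set for 50% or 75% activation. Steady-state ATPase inhibition followed by PK/LDH-coupled NADH oxidation at 340 nm.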

Assay [3] relates to rat cardiac contractility (left ventricle fractional shortening). Nature of the assay: Echocardiography of acute effect on rat cardiac contractility, continuous IV infusion. The format is in vivo, Sprague Dawley rats. The following applies: Rattus norvegicus, plasma concentration at which fractional shortening is 50% of pre-dose baseline, estimated, read-out: IC50 (Mean ± S.D.). Here is the method:
(§1) Assessment of in vivo cardiac function by echocardiography was performed in male Sprague Dawley rats under isoflurane (1-3%) anesthesia. 2-D M-mode images of the left ventricle were acquired in the parasternal long-axis view before, during, and after administration of compounds by continuous IV infusion or oral gavage. In vivo fractional shortening was determined by M-mode image analysis with the following calculation: ((End diastolic diameter−end systolic diameter)/end diastolic diameter×100). For continuous IV infusion experiments, three pre-dose baseline M-mode images were taken at 1 minute intervals prior to infusion of compound. Compounds were formulated in 50% Propylene Glycol (PG): 16% Captisol: 10% dimethylacetamide (DMA) and delivered via a jugular vein catheter at the rate of 1 mL/kg/h. During infusion, M-mode images were taken at 5 minute intervals. The infusion stopped when fractional shortening reached up to a 60% reduction from baseline. Blood samples were taken to determine the plasma concentration of the compounds. Data was reported as an estimated IC50 value, which is the concentration at which fractional shortening is 50% of the pre-dose baseline contractility.

For assay [4] the test system is unchanged. Put plainly: Echocardiography of acute effect on rat cardiac contractility, oral gavage. The assay is classed as in vivo, Sprague Dawley rats. The following applies: for inhibition in vivo at 6 mg/kg / IC50 / inhibition in vivo at 2 mg/kg: Rattus norvegicus; for inhibition in vivo at 6 mg/kg / inhibition in vivo at 2 mg/kg: oral gavage; for IC50 / IC10: oral dosing, estimated; for IC50: plasma concentration at which fractional shortening is 50% of pre-dose baseline; for IC10: plasma concentration at which. Here is the method: as §1
For oral dosing studies, three pre-dose baseline M-Mode images were taken at 1 minute intervals prior to compound administration. Compounds were formulated in a 0.5% hydroxypropyl methylcellulose 2910 (HPMC 2910): 0.1% Tween 80 suspension and delivered as a single dose (5 mL/kg) by oral gavage. Rats were lightly anesthetized for M-Mode echocardiography measurements at select time points over a 24 hour period. Different dose levels were evaluated for each compound. The compound effect on cardiac fractional shortening at the highest dose evaluated is presented in Table D as a percent reduction of baseline fractional shortening (=100%).
Concurrent with echocardiography measurements, blood samples were taken to determine the corresponding compound plasma concentration.

Setting [5] is: 1 h, 1-2 h post dose, read-out: FS (% reduction from baseline) at 1-2 h post dose (Mean ± S.D.).
The mark [6] stands for this setting: 4 h post dose, read-out: FS (% reduction from baseline) at 4 h post dose (Mean ± S.D.).

Where two headings read alike, the source gives them in different places.

Sequence of bovine cardiac myofibrils (full-length cardiac myosin ATPase in the native sarcomere) (Q9BE39 whole entry): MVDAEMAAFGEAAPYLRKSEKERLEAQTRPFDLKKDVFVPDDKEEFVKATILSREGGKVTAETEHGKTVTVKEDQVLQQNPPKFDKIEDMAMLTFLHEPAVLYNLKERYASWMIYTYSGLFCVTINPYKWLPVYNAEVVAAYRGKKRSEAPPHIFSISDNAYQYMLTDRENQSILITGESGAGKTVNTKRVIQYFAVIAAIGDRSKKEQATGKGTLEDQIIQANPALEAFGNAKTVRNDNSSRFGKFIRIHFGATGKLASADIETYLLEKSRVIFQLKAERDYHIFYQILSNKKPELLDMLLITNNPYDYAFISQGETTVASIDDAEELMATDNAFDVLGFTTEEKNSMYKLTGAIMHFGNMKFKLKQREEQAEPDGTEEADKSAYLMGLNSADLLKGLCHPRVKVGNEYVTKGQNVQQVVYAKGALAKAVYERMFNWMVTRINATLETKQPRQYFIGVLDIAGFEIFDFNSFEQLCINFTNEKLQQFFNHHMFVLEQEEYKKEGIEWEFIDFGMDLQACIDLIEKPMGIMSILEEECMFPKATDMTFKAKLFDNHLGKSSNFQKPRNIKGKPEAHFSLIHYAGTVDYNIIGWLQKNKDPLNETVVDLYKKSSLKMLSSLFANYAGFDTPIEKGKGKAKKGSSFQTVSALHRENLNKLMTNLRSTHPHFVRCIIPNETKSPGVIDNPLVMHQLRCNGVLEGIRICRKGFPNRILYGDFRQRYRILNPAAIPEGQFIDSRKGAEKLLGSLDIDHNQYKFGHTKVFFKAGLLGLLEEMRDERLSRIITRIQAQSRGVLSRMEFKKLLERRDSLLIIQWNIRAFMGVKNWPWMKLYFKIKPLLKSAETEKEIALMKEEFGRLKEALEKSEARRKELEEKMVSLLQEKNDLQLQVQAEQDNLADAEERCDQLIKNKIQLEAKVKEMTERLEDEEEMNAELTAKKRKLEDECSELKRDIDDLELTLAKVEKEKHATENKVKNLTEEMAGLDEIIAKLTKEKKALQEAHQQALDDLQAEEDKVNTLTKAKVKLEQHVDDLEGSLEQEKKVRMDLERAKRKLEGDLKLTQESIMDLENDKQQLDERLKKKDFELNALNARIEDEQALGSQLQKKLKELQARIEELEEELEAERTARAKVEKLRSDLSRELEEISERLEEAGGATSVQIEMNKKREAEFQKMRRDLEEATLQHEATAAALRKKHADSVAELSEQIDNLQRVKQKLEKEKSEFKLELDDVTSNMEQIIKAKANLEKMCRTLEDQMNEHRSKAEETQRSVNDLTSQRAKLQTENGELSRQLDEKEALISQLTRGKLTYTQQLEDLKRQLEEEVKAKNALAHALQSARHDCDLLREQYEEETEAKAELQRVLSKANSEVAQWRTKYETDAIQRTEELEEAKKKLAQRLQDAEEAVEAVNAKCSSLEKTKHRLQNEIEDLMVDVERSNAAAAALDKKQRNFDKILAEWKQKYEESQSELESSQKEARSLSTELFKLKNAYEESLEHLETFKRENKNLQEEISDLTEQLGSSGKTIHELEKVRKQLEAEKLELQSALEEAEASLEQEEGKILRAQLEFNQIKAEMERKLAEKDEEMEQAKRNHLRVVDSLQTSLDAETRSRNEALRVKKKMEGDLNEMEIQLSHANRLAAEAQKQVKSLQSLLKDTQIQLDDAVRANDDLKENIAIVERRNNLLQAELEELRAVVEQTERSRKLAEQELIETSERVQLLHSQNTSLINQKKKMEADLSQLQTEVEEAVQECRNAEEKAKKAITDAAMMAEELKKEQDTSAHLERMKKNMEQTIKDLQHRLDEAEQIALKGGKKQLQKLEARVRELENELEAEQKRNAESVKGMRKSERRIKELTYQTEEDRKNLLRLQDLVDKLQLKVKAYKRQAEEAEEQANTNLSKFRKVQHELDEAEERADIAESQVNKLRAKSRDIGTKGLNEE
Sequence of bovine cardiac myofibrils (full-length cardiac myosin ATPase in the native sarcomere) (P85100 whole entry partner): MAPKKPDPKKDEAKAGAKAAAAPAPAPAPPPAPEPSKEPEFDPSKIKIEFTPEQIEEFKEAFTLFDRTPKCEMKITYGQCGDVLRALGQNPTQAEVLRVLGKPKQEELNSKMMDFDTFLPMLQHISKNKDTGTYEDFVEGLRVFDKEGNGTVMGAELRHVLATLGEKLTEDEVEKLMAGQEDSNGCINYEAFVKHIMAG
Sequence of bovine cardiac myofibrils (full-length cardiac myosin ATPase in the native sarcomere) (Q3SZE5 whole entry partner): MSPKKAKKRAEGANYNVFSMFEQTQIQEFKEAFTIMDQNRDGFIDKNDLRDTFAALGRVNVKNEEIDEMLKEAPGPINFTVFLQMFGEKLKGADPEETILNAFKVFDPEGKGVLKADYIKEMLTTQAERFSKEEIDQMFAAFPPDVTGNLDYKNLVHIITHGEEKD

Turning to `Cc1cc(C(=O)NC2CCc3cc(-c4noc(C(F)F)n4)ccc32)ccn1` (stereo not shown) [Compound 5, N-(5-(5-(difluoromethyl)-1,2,4-oxadiazol-3-yl)-2,3-dihydro-1H-inden-1-yl)-2-methylisonicotinamide], the inhibition at 10 µM in assay [1] came out at 73.2 ± 7.1%. Also, in assay [2], the “CDMF75 IC15” value came out at 1.14 µM and the IC50 (in general, the midpoint of a concentration-inhibition curve) was determined as 5.1 µM.

As for `CCc1cc(-c2ccc3c(c2)CC[C@H]3NC(=O)c2nnn(C)n2)no1` [Compound 253, (R)—N-(5-(5-ethylisoxazol-3-yl)-2,3-dihydro-1H-inden-1-yl)-2-methyl-2H-tetrazole-5-carboxamide], in assay [2], the “CDMF75 IC15” value amounted to 0.3 µM. The IC50 in assay [2] is 0.8 µM; in assay [3], 1.7 ± 0.08 µM; in assay [4], 1.3 µM. In addition, the inhibition in vivo at 6 mg/kg is 56 ± 9% in assay [4] (setting [5]) and 33 ± 7% in assay [4] (setting [6]). In addition, in assay [4], the IC10 – broadly, the concentration at which the effect reaches the 10% level – is 0.3 µM.

For the molecule `Cc1cc(C(=O)N[C@@H]2CCc3cc(-c4noc(C)n4)ccc32)ccn1` [Compound 31, (R)-2-methyl-N-(5-(5-methyl-1,2,4-oxadiazol-3-yl)-2,3-dihydro-1H-inden-1-yl)isonicotinamide], the inhibition at 10 µM in assay [1] came out at 23.3 ± 18.9%. Further, in assay [2], the “CDMF75 IC15” value is 1.0 µM and the half-maximal inhibitory concentration (IC50) is 3.6 µM.

With `CCc1nc(-c2ccc3c(c2)CC[C@H]3NC(=O)c2ccnc(C)c2)no1` [Compound 387, (R)-N-(5-(5-ethyl-1,2,4-oxadiazol-3-yl)-2,3-dihydro-1H-inden-1-yl)-2-methylisonicotinamide], the “CDMF75 IC15” value in assay [2] amounted to 0.5 µM. The IC50 in assay [2] was 1.3 µM; in assay [3] it was 2.4 ± 0.08 µM; in assay [4], 1.6 µM. Also, the inhibition in vivo at 6 mg/kg in assay [4] (setting [5]) amounted to 59 ± 24%; in assay [4] (setting [6]), 50 ± 18%. In addition, in assay [4], the IC10 is 0.4 µM.

For the molecule `Cc1cc(-c2ccc3c(c2)OC[C@H]3NC(=O)c2cn[nH]c2C)no1` [Compound 434, (S)-5-methyl-N-(6-(5-methylisoxazol-3-yl)-2,3-dihydrobenzofuran-3-yl)-1H-pyrazole-4-carboxamide], in assay [2], the “CDMF75 IC15” value turned out to be 0.7 µM and the IC50 worked out at 2.4 µM. Besides, the IC50 in assay [3] is 9.3 ± 0.15 µM.

For `Cc1cnoc1C(=O)N[C@@H]1CCc2cc(-c3noc(C(C)C)n3)ccc21` [Compound 116, (R)-N-(5-(5-isopropyl-1,2,4-oxadiazol-3-yl)-2,3-dihydro-1H-inden-1-yl)-4-methylisoxazole-5-carboxamide], the inhibition at 10 µM in assay [1] amounted to 72.5%. Further, in assay [2], the “CDMF75 IC15” value worked out at 0.3 µM and the IC50 is 1.5 µM.

For the molecule `CCc1cc(-c2ccc3c(c2)OC[C@H]3NC(=O)c2nnn(C)n2)no1` [Compound 365, (S)-N-(6-(5-ethylisoxazol-3-yl)-2,3-dihydrobenzofuran-3-yl)-2-methyl-2H-tetrazole-5-carboxamide], in assay [2], the “CDMF75 IC15” value was 0.6 µM and the IC50 came to 2.2 µM. The IC50 in assay [3] is 4.6 ± 0.17 µM.

Take `CCc1nc(-c2ccc3c(c2)CC[C@H]3NC(=O)OC)no1` [Compound 304, methyl (R)-(5-(5-ethyl-1,2,4-oxadiazol-3-yl)-2,3-dihydro-1H-inden-1-yl)carbamate]: in assay [2], the “CDMF75 IC15” value turned out to be 0.2 µM and the IC50 was determined as 0.7 µM. For the same molecule, the IC50 in assay [3] is 1.7 ± 0.06 µM.

On to `CCc1nc(-c2ccc3c(c2)CC[C@H]3NC(=O)c2nnn(C)n2)no1` [Compound 183, (R)—N-(5-(5-ethyl-1,2,4-oxadiazol-3-yl)-2,3-dihydro-1H-inden-1-yl)-2-methyl-2H-tetrazole-5-carboxamide], for which the “CDMF75 IC15” value in assay [2] was found to be 0.3 µM. In addition, the IC50 in assay [2] is 0.9 µM; in assay [3] it was 1.2 ± 0.02 µM; in assay [4] it was 0.9 µM. Also, the inhibition in vivo at 2 mg/kg turned out to be 42 ± 16% in assay [4] (setting [5]) and 15 ± 13% in assay [4] (setting [6]). The IC10 in assay [4] was 0.2 µM.

For the molecule `COCc1nc(-c2ccc3c(c2)CC[C@H]3NC(=O)c2nnn(C)n2)no1` [Compound 144, (R)-N-(5-(5-(methoxymethyl)-1,2,4-oxadiazol-3-yl)-2,3-dihydro-1H-inden-1-yl)-2-methyl-2H-tetrazole-5-carboxamide], the “CDMF75 IC15” value in assay [2] stood at 0.6 µM. Also, the results for the IC50 in assay [2] and in assay [3] were 2.3 µM and 3.4 ± 0.12 µM, respectively.

On to `CCc1cc(-c2ccc3c(c2)OC[C@H]3NC(=O)c2cn[nH]c2C)no1` [Compound 433, (S)—N-(6-(5-ethylisoxazol-3-yl)-2,3-dihydrobenzofuran-3-yl)-5-methyl-1H-pyrazole-4-carboxamide], for which, in assay [2], the “CDMF75 IC15” value was 0.3 µM and the IC50 came to 0.9 µM. For the same molecule, the IC50 in assay [3] is 4.3 ± 0.11 µM.

On to `Cc1nc(-c2ccc3c(c2)OC[C@H]3NC(=O)c2cnn(C)c2)no1` [Compound 211, (S)-1-methyl-N-(6-(5-methyl-1,2,4-oxadiazol-3-yl)-2,3-dihydrobenzofuran-3-yl)-1H-pyrazole-4-carboxamide], for which, in assay [2], the “CDMF75 IC15” value was found to be 0.8 µM and the IC50 was determined as 2.8 µM. Further, the IC50 in assay [3] was 5.4 ± 0.25 µM.

Consider `CCc1nc(-c2ccc3c(c2)OC[C@H]3NC(=O)c2cnn(C)c2)no1` [Compound 238, (S)—N-(6-(5-ethyl-1,2,4-oxadiazol-3-yl)-2,3-dihydrobenzofuran-3-yl)-1-methyl-1H-pyrazole-4-carboxamide], for which, in assay [2], the “CDMF75 IC15” value worked out at 0.3 µM. In addition, the results for the IC50 in assay [2], in assay [3] and in assay [4] were 1 µM, 5.7 ± 0.31 µM and 4.9 µM, respectively. For the same molecule, the inhibition in vivo at 2 mg/kg in assay [4] (setting [5]) is 52 ± 10%; in assay [4] (setting [6]), 59 ± 6%. The IC10 in assay [4] was 0.9 µM.
